Measurements published in patent US10632117B2, “GSK3B and uses thereof in the diagnostic and treatment of hypopigmentation disorders” (INSERM (INSTITUT NATIONAL DE LA SANTE ET DE LA RECHERCHE …, priority 2014, dated 2020).

How the values were obtained:
Type in all cases: cell-based, human
[1] = test system: WNT pathway; assay: Ex vivo culture of lesional vitiligo skin biopsies with WNT pathway activators, RT-qPCR of WNT family and LEF; conditions: 14 days, stimulation every other day, CHIR99021 3 μM, LiCl 20 μM, SKL2001 40 μM
Method: (§1) For vitiligo skin biopsies, after verification of the absence of melanocytes with Wood's lamp, two or three 6 mm biopsies composed of dermis plus epidermis were taken into lesional skin from vitiligo patients (n=9). The biopsies are rapidly put on transwell chamber of 0.4 μm (Becton Dickinson) and kept on semi liquid culture conditions in “Skin long term culture medium” (Biopredic). The skin was maintained at 37° C. in a wet 5% CO2, atmosphere.
(§2) The culture medium supplemented with Forskolin (Sigma Aldrich), LiCl (Sigma Aldrich), CHIR99021 (Calbiochem) or SKL2001 (Calbiochem) was changed […] during 14 days.
(§3) mRNA from melanocytes and keratinocytes was extracted with RNeasy kit (Qiagen). The biopsies are cut and disrupted with tissue ruptor (Qiagen) and the mRNA was extracted with RNeasy kit (Qiagen). cDNA were synthesized from 300 ng to 1 μg of mRNA with the Reverse Transcription System (Promega). Relative quantification of gene expression was measured by real time qPCR with Sybr green reagent (Life technology) on Step one system.
(§4) In order to induce the differentiation of melanocyte stem cells, they pharmacologically activated the WNT pathway in vitiligo skin cultured ex vivo as shown previously. They used two methods to activate the WNT pathway: a WNT agonist (SKL2001) and two GSK3β inhibitors: lithium chloride (LiCl) and a commercial specific inhibitor (CHIR99021). They biopsied 9 vitiligo subjects (6 mm punch) on diverse body locations ([…], 2 on trunk, 2 on leg, 1 on arm and 1 on axilla) and treated the ex vivo culture model during 14 days with a systemic stimulation every other day with the WNT activators.
(§5) They evaluated the activation of WNT pathway by the mRNA level of WNTs (TCF/LEF1 and the melanogenesis pathway by the mRNA level of MITF, DCT, PAX3 and BRn2) within the skin.

[2] = test system: depigmented skin from vitiligo patients; assay: Ex vivo culture of lesional vitiligo skin biopsies, RT-qPCR of melanoblast / pre-melanocyte markers; conditions: 14 days, SKL2001 40 μM; for mRNA level of early melanoblast marker Brn2 / mRNA level of early melanoblast marker PAX3: CHIR99021 3 μM, LiCl 20 μM
Method: as §1, §2, §3, §4, §5

[3] = test system: melanocyte stem cells in depigmented skin from vitiligo patients; assay: Ex vivo depigmented vitiligo skin, immunohistostaining for co-expression of DCT and PAX3; conditions: 14 days, every other day, SKL2001 40 μM, CHIR99021 3 μM, LiCl 20 μM, immunofluorescence
Method: Depigmented skin from vitiligo patients [A (control culture medium)] were stimulated in ex vivo culture with WNT agonist SKL2001 (40 μM) (B), GSK3β inhibitor CHIR99021 (3 μM) (C) or GSK3β inhibitor LiCl 20 μM (D) every other day to activate the WNT pathway. After 14 days, the skin response was analyzed by immunohistostaining with pre-melanocytes markers: a DCT staining (green) and PAX3 staining (red).
as §1, §2
Biopsies were fixed with 4% formol, embedded in paraffin, cut with microtome of […] sections and fixed on superfrost plus slides (Thermoscientific). […]

[4] = test system: whole skin in ex vivo culture; assay: Oxidative stress (H2O2) in whole skin in ex vivo culture: qPCR of LEF and WNT family; conditions: skin biopsies ex vivo, 24 hours, 25 to 100 μM H2O2
Method: (§6) NHM (A) and NHK (B) and whole skin in ex vivo culture (C) were stimulated 24 hours with 25 to 100 μM of H2O2. After mRNA extraction, a reverse transcription was performed and the relative gene expression of LEF1 was analyzed with qPCR.
(§7) (A) NHM, (B) NHK and (C) whole skin in ex vivo culture were stimulated 24 hours with 25 to 100 μM of H2O2. After mRNA extraction, a reverse transcription was performed and the relative gene expression of WNT family was analyzed with qPCR.
Skin from abdominoplasty surgery was used to the development of the ex vivo skin culture model. The subcutaneous fat was removed and biopsies of 6 mm were done in the skin composed of dermis and epidermis.
as §3

[5] = test system: NHK (keratinocytes); assay: Oxidative stress (H2O2) in NHK: qPCR of LEF and WNT family, TCF/LEF luciferase reporter; conditions: 24 hours, 25 to 100 μM H2O2
Method: as §6, §7
(§8) NHMs and NHKs are obtained from the foreskin of phototype IV children as described previously. Briefly, epidermal cells are obtained by overnight digestion of the skin in a dispase solution (Roche) at 4° C. followed by the digestion of the epidermis in a trypsin/EDTA solution during 20 minutes at 37° C. […]
(§9) mRNA from melanocytes and keratinocytes was extracted with RNeasy kit (Qiagen). […] Relative quantification of gene expression was measured by real time qPCR with Sybr green reagent (Life technology) on Step one system.
(§10) NHK and NHM were co-infected with the lentivirus TCF/LEF Reporter Luciferase and Cignal Lenti Reporter Control Renilla (Qiagen) and the infected cells were selected with Puromycin for 14 days. NHM and NHK selected were stimulated 24 h with SKL2001 and H2O2 and the TCF/LEF activity was measured with Dual Luciferase Reporter Assay System (Promega).

[6] = test system: NHM (melanocytes); assay: Oxidative stress (H2O2) in NHM: qPCR of LEF and WNT family, TCF/LEF luciferase reporter; conditions: 24 hours, 25 to 100 μM H2O2
Method: as §6, §7, §8, §9, §10

| Compound | relative expression of LEF mRNA [1] | relative expression of WNT family mRNA [1] | mRNA level of early melanoblast marker Brn2 [2] | mRNA level of early melanoblast marker PAX3 [2] | co-expression of DCT and PAX3 (differentiation of melanocyte stem cells into pre-melanocytes) [3] | expression of LEF [4] | expression of most of the WNT family [4] | expression of LEF [5] | expression of the majority of WNT [5] | expression of LEF [6] | expression of the majority of WNT [6] | level of MITF mRNA [2] |
| --- | --- | --- | --- | --- | --- | --- | --- | --- | --- | --- | --- | --- |
| Cc1c[nH]c(-c2cnc(NCCNc3ccc(C#N)cn3)nc2-c2ccc(Cl)cc2Cl)n1 [CHIR99021] | increase | increase | up-regulated | up-regulated | melanoblast in differentiation within the dermis | – | – | – | – | – | – | – |
| OO [H2O2] | – | – | – | – | – | decrease | decrease | decreased | decreased | decreased | decreased | – |
| O=C(NCCCn1ccnc1)c1cc(-c2ccco2)on1 [SKL2001] | increase | increase | up-regulated | up-regulated | melanoblast in differentiation within the dermis | – | – | – | – | – | – | increased |
